Laboratory results from article PMC3961306, “Comparison of the Cancer Gene Targeting and Biochemical Selectivities of All Targeted Kinase Inhibitors Approved for Clinical Use” (PLoS ONE, 2014).

Key:
Test in all cases: Kinase profiling in a biochemical assay panel (mobility shift assays and ELISA), %-inhibition at 1 μM; selectivity entropy
[1] = biological target: T1, panel of more than 300 wild-type and mutant kinases (313 kinase panel) (Homo sapiens, UniProt Q9BZL6); settings: kinase PKD2; 1 μM
T1 sequence (Q9BZL6 1-878): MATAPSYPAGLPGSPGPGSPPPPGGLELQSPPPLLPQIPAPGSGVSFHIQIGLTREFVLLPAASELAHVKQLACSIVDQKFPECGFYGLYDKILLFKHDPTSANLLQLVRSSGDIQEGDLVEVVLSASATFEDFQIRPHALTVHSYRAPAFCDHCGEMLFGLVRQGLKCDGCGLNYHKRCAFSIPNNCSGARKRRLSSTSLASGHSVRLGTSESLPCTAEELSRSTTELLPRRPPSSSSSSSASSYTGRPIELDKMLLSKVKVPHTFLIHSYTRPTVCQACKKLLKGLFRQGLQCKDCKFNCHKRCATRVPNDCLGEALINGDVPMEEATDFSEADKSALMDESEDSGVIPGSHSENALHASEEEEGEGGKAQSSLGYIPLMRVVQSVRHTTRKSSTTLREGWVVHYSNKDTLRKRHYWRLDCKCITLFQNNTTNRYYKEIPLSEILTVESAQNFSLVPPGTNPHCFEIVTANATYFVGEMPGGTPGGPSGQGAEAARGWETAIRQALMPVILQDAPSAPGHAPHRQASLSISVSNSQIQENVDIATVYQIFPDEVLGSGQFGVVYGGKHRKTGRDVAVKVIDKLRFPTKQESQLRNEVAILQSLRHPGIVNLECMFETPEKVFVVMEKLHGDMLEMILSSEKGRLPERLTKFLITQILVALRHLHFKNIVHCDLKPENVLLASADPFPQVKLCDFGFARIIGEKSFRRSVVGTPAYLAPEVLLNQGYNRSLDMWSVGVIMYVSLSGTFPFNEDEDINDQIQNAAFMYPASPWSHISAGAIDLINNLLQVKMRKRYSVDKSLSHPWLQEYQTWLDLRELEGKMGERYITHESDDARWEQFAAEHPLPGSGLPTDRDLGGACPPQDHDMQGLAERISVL

[2] = biological target: panel of more than 300 wild-type and mutant kinases (313 kinase panel) (Homo sapiens, UniProt P04049)
[3] = biological target: panel of more than 300 wild-type and mutant kinases (313 kinase panel) (Homo sapiens, UniProt Q9Y6R4); settings: kinase MAP3K4; compound at 1 μM
[4] = biological target: T2, panel of more than 300 wild-type and mutant kinases (313 kinase panel) (Homo sapiens, UniProt Q8TF76); settings: kinase Haspin; compound at 1 μM
T2 sequence (Q8TF76 1-798): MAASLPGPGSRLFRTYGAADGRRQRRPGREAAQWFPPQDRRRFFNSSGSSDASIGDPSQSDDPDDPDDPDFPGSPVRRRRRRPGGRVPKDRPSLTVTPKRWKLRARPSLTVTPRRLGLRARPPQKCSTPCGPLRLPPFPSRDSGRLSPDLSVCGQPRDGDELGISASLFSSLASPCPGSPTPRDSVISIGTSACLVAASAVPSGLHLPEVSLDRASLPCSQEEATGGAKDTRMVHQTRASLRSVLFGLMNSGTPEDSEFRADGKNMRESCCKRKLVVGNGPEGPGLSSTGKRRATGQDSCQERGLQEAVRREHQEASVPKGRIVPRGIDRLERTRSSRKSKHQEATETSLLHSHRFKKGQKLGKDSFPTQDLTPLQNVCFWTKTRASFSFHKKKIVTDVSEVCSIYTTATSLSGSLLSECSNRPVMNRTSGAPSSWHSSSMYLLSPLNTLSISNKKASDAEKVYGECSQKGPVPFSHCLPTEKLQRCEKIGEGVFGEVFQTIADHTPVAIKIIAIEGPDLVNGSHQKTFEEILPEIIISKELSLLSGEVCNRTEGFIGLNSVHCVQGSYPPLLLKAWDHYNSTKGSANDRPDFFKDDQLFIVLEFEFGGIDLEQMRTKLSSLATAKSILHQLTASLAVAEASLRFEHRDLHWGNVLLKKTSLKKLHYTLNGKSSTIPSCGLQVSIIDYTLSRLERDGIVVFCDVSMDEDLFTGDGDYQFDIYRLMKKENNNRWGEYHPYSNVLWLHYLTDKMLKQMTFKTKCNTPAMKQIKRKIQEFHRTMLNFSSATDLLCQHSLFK

[5] = biological target: panel of more than 300 wild-type and mutant kinases (313 kinase panel) (Homo sapiens, UniProt O00311); settings: kinase CDC7/ASK; 1 μM compound
[6] = biological target: panel of more than 300 wild-type and mutant kinases (313 kinase panel) (Homo sapiens, UniProt P31749); settings: kinase AKT1; 1 μM compound
[7] = biological target: panel of more than 300 wild-type and mutant kinases (313 kinase panel) (Homo sapiens, UniProt Q9H422); settings: kinase HIPK3; compound at 1 μM
[8] = biological target: panel of more than 300 wild-type and mutant kinases (313 kinase panel) (Homo sapiens, UniProt Q9HC98); settings: kinase NEK6; 1 μM
[9] = biological target: panel of more than 300 wild-type and mutant kinases (313 kinase panel) (Homo sapiens, UniProt P80192); settings: kinase MLK1; 1 μM
[10] = biological target: panel of more than 300 wild-type and mutant kinases (313 kinase panel) (Homo sapiens, UniProt Q14012); settings: kinase CaMK1α; 1 μM compound
[11] = biological target: panel of more than 300 wild-type and mutant kinases (313 kinase panel) (Homo sapiens, UniProt Q9NYY3)

panel of more than 300 wild-type and mutant kinases (313 kinase panel) (Homo sapiens, UniProt Q9Y6R4), sequence (Q9Y6R4 whole entry, change not shown): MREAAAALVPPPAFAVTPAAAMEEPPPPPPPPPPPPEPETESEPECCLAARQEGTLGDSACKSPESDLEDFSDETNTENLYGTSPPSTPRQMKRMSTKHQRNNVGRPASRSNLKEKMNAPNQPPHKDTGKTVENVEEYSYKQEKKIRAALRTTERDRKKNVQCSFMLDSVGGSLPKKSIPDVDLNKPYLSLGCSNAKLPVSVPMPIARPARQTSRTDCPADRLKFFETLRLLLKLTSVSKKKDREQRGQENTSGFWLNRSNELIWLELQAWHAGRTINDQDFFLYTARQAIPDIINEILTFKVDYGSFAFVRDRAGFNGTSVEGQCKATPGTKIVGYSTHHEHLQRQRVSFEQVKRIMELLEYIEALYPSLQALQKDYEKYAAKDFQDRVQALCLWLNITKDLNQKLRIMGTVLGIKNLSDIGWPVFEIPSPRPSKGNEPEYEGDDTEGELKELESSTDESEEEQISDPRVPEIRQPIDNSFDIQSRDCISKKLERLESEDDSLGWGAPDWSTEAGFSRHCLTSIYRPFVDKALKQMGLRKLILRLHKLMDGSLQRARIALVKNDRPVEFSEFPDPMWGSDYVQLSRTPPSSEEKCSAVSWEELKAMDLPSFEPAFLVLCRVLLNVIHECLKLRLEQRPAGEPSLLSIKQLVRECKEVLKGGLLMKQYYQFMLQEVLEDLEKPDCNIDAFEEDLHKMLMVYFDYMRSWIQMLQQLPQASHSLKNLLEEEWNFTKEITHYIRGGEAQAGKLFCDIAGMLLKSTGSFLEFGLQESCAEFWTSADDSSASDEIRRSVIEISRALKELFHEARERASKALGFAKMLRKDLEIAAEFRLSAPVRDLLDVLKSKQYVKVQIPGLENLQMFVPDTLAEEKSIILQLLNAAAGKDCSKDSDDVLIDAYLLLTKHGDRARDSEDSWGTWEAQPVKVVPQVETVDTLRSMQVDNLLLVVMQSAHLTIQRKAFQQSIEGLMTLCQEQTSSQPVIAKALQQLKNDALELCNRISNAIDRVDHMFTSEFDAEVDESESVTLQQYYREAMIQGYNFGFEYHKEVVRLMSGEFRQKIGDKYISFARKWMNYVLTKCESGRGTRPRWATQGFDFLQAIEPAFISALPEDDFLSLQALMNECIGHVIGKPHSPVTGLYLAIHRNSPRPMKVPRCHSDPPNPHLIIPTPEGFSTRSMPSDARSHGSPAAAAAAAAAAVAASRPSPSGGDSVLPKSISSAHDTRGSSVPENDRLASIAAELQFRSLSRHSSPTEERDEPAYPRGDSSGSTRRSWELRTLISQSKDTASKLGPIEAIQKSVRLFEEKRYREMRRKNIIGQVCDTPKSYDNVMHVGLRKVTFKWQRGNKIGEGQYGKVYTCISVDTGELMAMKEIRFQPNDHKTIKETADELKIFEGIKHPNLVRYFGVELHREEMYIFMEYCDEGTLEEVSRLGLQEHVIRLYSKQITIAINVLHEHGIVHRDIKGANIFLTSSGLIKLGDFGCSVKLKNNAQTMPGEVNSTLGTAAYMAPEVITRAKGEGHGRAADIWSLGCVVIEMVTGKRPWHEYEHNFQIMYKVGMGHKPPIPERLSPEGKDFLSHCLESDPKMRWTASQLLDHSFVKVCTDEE
panel of more than 300 wild-type and mutant kinases (313 kinase panel) (Homo sapiens, UniProt P04049), sequence (P04049 whole entry, change not shown): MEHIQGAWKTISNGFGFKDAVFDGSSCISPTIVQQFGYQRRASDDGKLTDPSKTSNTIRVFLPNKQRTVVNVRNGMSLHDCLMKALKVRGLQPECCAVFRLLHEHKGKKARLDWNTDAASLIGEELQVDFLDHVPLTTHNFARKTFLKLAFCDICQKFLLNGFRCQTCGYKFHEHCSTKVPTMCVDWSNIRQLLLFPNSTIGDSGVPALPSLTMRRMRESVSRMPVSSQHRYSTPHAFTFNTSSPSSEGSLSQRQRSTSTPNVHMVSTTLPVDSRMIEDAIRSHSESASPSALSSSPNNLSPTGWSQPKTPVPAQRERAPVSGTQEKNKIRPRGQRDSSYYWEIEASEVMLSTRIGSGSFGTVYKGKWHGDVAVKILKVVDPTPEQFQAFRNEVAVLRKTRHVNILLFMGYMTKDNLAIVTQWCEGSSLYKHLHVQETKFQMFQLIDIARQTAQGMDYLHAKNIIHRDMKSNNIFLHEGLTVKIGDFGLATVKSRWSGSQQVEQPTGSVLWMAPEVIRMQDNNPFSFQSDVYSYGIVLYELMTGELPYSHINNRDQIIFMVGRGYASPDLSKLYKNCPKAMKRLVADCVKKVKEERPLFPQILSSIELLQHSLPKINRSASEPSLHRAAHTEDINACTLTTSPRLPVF
panel of more than 300 wild-type and mutant kinases (313 kinase panel) (Homo sapiens, UniProt P31749), sequence (P31749 whole entry, change not shown): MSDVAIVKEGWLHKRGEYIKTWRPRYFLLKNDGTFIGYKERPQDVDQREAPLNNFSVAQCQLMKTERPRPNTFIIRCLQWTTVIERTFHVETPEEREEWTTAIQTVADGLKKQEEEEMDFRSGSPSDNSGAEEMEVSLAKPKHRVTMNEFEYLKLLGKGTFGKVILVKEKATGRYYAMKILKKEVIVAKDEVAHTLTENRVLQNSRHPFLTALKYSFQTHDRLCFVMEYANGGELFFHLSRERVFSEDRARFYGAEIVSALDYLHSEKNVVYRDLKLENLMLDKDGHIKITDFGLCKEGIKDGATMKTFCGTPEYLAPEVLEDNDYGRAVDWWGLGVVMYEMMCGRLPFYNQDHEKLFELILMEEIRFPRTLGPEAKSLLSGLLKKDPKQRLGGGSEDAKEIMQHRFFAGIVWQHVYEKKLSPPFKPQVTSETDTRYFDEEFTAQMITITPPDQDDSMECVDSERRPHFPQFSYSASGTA
panel of more than 300 wild-type and mutant kinases (313 kinase panel) (Homo sapiens, UniProt P80192), sequence (P80192 whole entry, change not shown): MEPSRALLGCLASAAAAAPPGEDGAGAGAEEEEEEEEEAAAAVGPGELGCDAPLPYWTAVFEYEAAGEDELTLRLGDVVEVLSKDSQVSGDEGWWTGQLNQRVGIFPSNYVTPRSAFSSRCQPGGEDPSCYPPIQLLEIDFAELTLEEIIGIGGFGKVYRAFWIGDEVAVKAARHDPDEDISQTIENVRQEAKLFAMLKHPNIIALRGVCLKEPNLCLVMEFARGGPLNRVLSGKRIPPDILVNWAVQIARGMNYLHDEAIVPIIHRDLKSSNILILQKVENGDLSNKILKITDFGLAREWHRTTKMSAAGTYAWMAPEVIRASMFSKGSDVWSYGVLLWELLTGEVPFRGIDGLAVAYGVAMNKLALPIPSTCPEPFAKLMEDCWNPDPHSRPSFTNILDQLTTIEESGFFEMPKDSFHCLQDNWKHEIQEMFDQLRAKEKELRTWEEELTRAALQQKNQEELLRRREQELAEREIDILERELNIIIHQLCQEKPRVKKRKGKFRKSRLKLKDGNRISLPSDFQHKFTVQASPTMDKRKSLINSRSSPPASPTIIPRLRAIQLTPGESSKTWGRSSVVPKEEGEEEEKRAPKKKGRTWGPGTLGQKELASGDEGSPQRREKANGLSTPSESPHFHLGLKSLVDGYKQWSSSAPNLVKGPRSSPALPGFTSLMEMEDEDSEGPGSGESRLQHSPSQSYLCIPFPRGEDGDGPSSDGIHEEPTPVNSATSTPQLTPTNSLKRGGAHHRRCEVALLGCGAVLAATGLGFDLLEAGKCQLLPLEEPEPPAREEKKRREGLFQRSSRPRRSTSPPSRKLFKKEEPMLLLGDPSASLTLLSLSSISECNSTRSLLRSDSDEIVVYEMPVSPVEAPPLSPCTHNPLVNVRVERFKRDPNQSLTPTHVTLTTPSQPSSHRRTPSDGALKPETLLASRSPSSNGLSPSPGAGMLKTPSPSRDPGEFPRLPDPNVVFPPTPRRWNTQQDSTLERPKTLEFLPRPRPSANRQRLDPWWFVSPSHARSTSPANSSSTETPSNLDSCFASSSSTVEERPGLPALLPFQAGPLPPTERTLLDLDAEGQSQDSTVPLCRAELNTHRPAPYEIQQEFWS

## CC(=O)Nc1cccc(-n2c(=O)n(C3CC3)c(=O)c3c(Nc4ccc(I)cc4F)n(C)c(=O)c(C)c32)c1 [trametinib]
[1]
  %-inhibition of PKD2: -3.28%
[2]; kinase RAF1, 1 μM
  %-inhibition of RAF1: 61%
[3]
  %-inhibition of MAP3K4: 6%
[4]
  %-inhibition of Haspin: 5%
[5]
  %-inhibition, CDC7/ASK: -8%
[6]
  %-inhibition, AKT1: -3%
[7]
  %-inhibition of HIPK3: 0.0849%
[8]
  %-inhibition of NEK6: -0.324%
[9]
  %-inhibition of MLK1: 16%
[10]
  %-inhibition, CaMK1α: -2%
[11]; kinase PLK2, 1 μM
  %-inhibition of PLK2: -1.65%

## CO[C@H]1C[C@@H]2CC[C@@H](C)[C@@](O)(O2)C(=O)C(=O)N2CCCC[C@H]2C(=O)O[C@H]([C@H](C)C[C@@H]2CC[C@@H](OCCO)[C@H](OC)C2)CC(=O)[C@H](C)/C=C(\C)[C@@H](O)[C@@H](OC)C(=O)[C@H](C)C[C@H](C)/C=C/C=C/C=C/1C [everolimus]
[1]
  %-inhibition of PKD2: -17%
[2]; kinase RAF1, 1 μM
  %-inhibition of RAF1: 14%
[3]
  %-inhibition of MAP3K4: -1.11%
[4]
  %-inhibition of Haspin: -0.358%
[5]
  %-inhibition, CDC7/ASK: -6%
[6]
  %-inhibition, AKT1: -7%
[7]
  %-inhibition of HIPK3: -8%
[8]
  %-inhibition of NEK6: -6.38%
[9]
  %-inhibition of MLK1: 5%
[10]
  %-inhibition, CaMK1α: -8%
[11]; kinase PLK2, 1 μM
  %-inhibition of PLK2: 1.38%

## CNC(=O)c1cc(Oc2ccc(NC(=O)Nc3ccc(Cl)c(C(F)(F)F)c3)c(F)c2)ccn1 [regorafenib]
[1]
  %-inhibition of PKD2: -18%
[2]; kinase RAF1, 1 μM
  %-inhibition of RAF1: 96%
[3]
  %-inhibition of MAP3K4: -9%
[4]
  %-inhibition of Haspin: -8%
[5]
  %-inhibition, CDC7/ASK: -5.36%
[6]
  %-inhibition, AKT1: -5.68%
[7]
  %-inhibition of HIPK3: 88%
[8]
  %-inhibition of NEK6: -6.48%
[9]
  %-inhibition of MLK1: -7%
[10]
  %-inhibition, CaMK1α: -6%
[11]; kinase PLK2, 1 μM
  %-inhibition of PLK2: -3.23%

## O=S(=O)(c1cccc2cnccc12)N1CCCNCC1 [fasudil]
[1]
  %-inhibition of PKD2: 24%
[2]; kinase RAF1, 1 μM
  %-inhibition of RAF1: 8%
[3]
  %-inhibition of MAP3K4: -18%
[4]
  %-inhibition of Haspin: 72%
[5]
  %-inhibition, CDC7/ASK: -7%
[6]
  %-inhibition, AKT1: 4.44%
[7]
  %-inhibition of HIPK3: -0.764%
[8]
  %-inhibition of NEK6: -2.46%
[9]
  %-inhibition of MLK1: 3.31%
[10]
  %-inhibition, CaMK1α: -5.45%
[11]; kinase PLK2, 1 μM
  %-inhibition of PLK2: 7%

## Cc1cn(-c2cc(NC(=O)c3ccc(C)c(Nc4nccc(-c5cccnc5)n4)c3)cc(C(F)(F)F)c2)cn1 [nilotinib]
[1]
  %-inhibition of PKD2: -3%
[2]; 1 µM
  %-inhibition of RAF1: 58%
[3]
  %-inhibition of MAP3K4: -18%
[4]
  %-inhibition of Haspin: 2.56%
[5]
  %-inhibition, CDC7/ASK: -7%
[6]
  %-inhibition, AKT1: 11%
[7]
  %-inhibition of HIPK3: 12%
[8]
  %-inhibition of NEK6: 1%
[9]
  %-inhibition of MLK1: -12%
[10]
  %-inhibition, CaMK1α: -15%
[11]; 1 µM
  %-inhibition of PLK2: 6%

## COc1cc2nccc(Oc3ccc(NC(=O)C4(C(=O)Nc5ccc(F)cc5)CC4)cc3)c2cc1OC [cabozantinib]
[1]
  %-inhibition of PKD2: -11%
[2]; kinase RAF1, 1 μM
  %-inhibition of RAF1: 48%
[3]
  %-inhibition of MAP3K4: -0.178%
[4]
  %-inhibition of Haspin: 8%
[5]
  %-inhibition, CDC7/ASK: -3.4%
[6]
  %-inhibition, AKT1: -4.52%
[7]
  %-inhibition of HIPK3: 67%
[8]
  %-inhibition of NEK6: -3.21%
[9]
  %-inhibition of MLK1: 20%
[10]
  %-inhibition, CaMK1α: -0.897%
[11]; kinase PLK2, 1 μM
  %-inhibition of PLK2: 4.4%
